{
  "source": "patent US20240425524A1",
  "about": "“SPIROTRICYCLE RIPK1 INHIBITORS AND METHODS OF USES THEREOF” (Merck Sharp & Dohme LLC, priority 2021, published 2024)",
  "note": "pEC50: −log10 of the molar value.",
  "data": [
    {"target": "RIPK1 (Homo sapiens (Human), UniProt Q13546)", "sequence (Q13546 1-327)": "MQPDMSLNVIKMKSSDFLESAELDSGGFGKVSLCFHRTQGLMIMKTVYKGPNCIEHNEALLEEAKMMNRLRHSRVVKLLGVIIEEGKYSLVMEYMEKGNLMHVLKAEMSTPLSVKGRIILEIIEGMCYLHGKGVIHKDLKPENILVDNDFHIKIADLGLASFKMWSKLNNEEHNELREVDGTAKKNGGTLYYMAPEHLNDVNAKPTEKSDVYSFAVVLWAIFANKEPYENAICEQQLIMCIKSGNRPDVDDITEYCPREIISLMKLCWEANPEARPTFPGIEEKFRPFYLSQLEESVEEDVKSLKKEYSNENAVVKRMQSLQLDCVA", "test": "RIPK1-ADP-Glo Enzymatic Assay", "format": "biochemical", "conditions": "recombinant GST-RIPK1 kinase domain (residues 1-327), 25 nM, ten-point titration, 30 minutes pre-incubation", "experimental": "The enzymatic activity of RIPK1 was measured using an assay derived from ADP-Glo kit (™Promega), which provides a luminescent-based ADP detection system. Specifically, the ADP generated by RIPK1 kinase was proportionally detected as luminescent signals in a homogenous fashion. In this context, the assessment of the inhibitory effect of small molecules (EC50) was measured by the effectiveness of the compounds to inhibit the ATP to ADP conversion by RIPK1.\nIn this assay, the potency (EC50) of each compound was determined from a ten-point (1:3 serial dilution: top compound concentration of 100000 nM) titration curve using the following outlined procedure. To each well of a white ProxiPlus 384 well-plate, 30 nL of compound (1% DMSO in final assay volume of 3 μL) was dispensed, followed by the addition of 2 μL of 1x assay buffer (25 mM Hepes 7.3, 20 mM MgCl2, 50 mM NaCl, 1 mM DTT, 0.005% Tween20, and 0.02% BSA) containing 37.5 nM of GST-RIPK1 (recombinant GST-RIPK1 kinase domain (residues 1-327) enzyme produced from baculovirus-transfected Sf21 cells: MW=62 kDa). Plates were placed in an ambient temperature humidified chamber for a 30 minutes pre-incubation with compound. Subsequently, each reaction was initiated by the addition of 1 μL 1× assay buffer containing […] dephosphorylated-MBP substrate. The final reaction in each well of 3 μL consists of 25 nM of GST-RIPK1, 300 µM ATP, and 3 μM dephosphorylated-MBP. Kinase reactions were allowed to proceed for 150 minutes prior to adding ADP-Glo reagents per Promega's outlined kit protocol. Dose-response curves were generated by plotting percent effect (% product conversion: Y-axis) vs. Logio compound concentrations (X-axis). EC50 values were calculated using a non-linear regression, four-parameters sigmoidal dose-response model and are provided for example compounds of the invention (labeled “RIPK1 EC50 (nM)” throughout the above examples).", "values": [
      {"smiles": "Cc1ccn(-c2cccc(N3CCC4(CC3)CN3CC[C@@H](c5cc(F)cc(F)c5)N3C4=O)n2)n1", "note": "[Example 2.13, (S)-7′-(3,5-difluorophenyl)-1-(6-(3-methyl-1H-pyrazol-1-yl)pyridin-2-yl)dihydro-1′H,3′H,5′H-spiro[piperidine-4,2′-pyrazolo[1,2-a]pyrazol]-1′-one]", "pEC50": 7.77},
      {"smiles": "O=C1N2[C@H](c3cc(F)cc(F)c3)CCN2CC12CCN(c1cc(-n3ccnc3)ncn1)CC2", "note": "[Example 1.18, (S)-1-(6-(1H-imidazol-1-yl)pyrimidin-4-yl)-7′-(3,5-difluorophenyl)dihydro-1′H,3′H,5′H-spiro[piperidine-4,2′-pyrazolo[1,2-a]pyrazol]-1′-one]", "pEC50": 7.57},
      {"smiles": "Cc1cc(F)cc(C(=O)N2CCC3(CC2)CN2CC[C@@H](c4cc(F)cc(F)c4)N2C3=O)c1", "note": "[Example 4.18, (S)-7′-(3,5-difluorophenyl)-1-(3-fluoro-5-methylbenzoyl) dihydro-1′H,3′H,5′H-spiro[piperidine-4,2′-pyrazolo[1,2-a]pyrazol]-l′-one]", "pEC50": 7.74},
      {"smiles": "O=C1N2[C@H](c3cc(F)cc(F)c3)CCN2CC12CCN(Cc1ccc3ccccc3n1)CC2", "note": "[Example 6.1, (S)-7′-(3,5-difluorophenyl)-1-(quinolin-2-ylmethyl) dihydro-1′H,3′H,5′H-spiro [piperidine-4,2′-pyrazolo[1,2-α]pyrazol]-1′-one]", "pEC50": 6.15},
      {"smiles": "COc1cc(N2CCC3(CC2)CN2CC[C@@H](c4cc(F)cc(F)c4)N2C3=O)ccn1", "note": "[Example 1.89, (S)-7′-(3,5-difluorophenyl)-1-(2-methoxypyridin-4-yl)dihydro-1′H,3′H,5′H-spiro[piperidine-4,2′-pyrazolo[1,2-a]pyrazol]-1′-one]", "pEC50": 7.62},
      {"smiles": "O=C1N2[C@H](c3cc(F)cc(F)c3)CCN2CC12CCN(c1ccnc3ccccc13)CC2", "note": "[Example 2.7, (S)-7′-(3,5-difluorophenyl)-1-(quinolin-4-yl)dihydro-1′H,3′H,5′H-spiro[piperidine-4,2′-pyrazolo[1,2-a]pyrazol]-1′-one]", "pEC50": 7.62},
      {"smiles": "O=C1N2[C@H](c3cc(F)cc(F)c3)CCN2CC12CCN(c1ccc(F)cc1)CC2", "note": "[Example 10.3, (S)-7′-(3,5-difluorophenyl)-1-(4-fluorophenyl)dihydro-1′H,3′H,5′H-spiro[piperidine-4,2′-pyrazolo[1,2-a]pyrazol]-l′-one]", "pEC50": 6.91},
      {"smiles": "O=C1N2[C@H](c3cc(F)cc(F)c3)CCN2CC12CCN(c1cnccn1)CC2", "note": "[Example 1.41, (S)-7′-(3,5-difluorophenyl)-1-(pyrazin-2-yl)dihydro-1′H,3′H,5′H-spiro[piperidine-4,2′-pyrazolo[1,2-a]pyrazol]-1′-one]", "pEC50": 6.51},
      {"smiles": "O=C1N2[C@H](c3cc(F)cc(F)c3)CCN2CC12CCN(c1ncc(F)cc1C(F)F)CC2", "note": "[Example 2.9, (S)-1-(3-(difluoromethyl)-5-fluoropyridin-2-y1)-7′-(3,5-difluorophenyl)dihydro-l′H,3′H,5′H-spiro[piperidine-4,2′-pyrazolo[1,2-a]pyrazol]-1′-one]", "pEC50": 6.10},
      {"smiles": "O=C1N2[C@H](c3cc(F)cc(F)c3)CCN2CC12CCN(c1ccc(Cl)nn1)CC2", "note": "[Example 1.34, (S)-1-(6-chloropyridazin-3-yl)-7′-(3,5-difluorophenyl)dihydro-1′H,3′H,5′H-spiro[piperidine-4,2′-pyrazolo[1,2-a]pyrazol]-1′-one]", "pEC50": 6.34},
      {"smiles": "O=C1N2[C@H](c3cc(F)cc(F)c3)CCN2CC12CCN(c1cccc(C(F)(F)F)n1)CC2", "note": "[Example 1.63, (S)-7′-(3,5-difluorophenyl)-1-(6-(trifluoromethyl)pyridin-2-yl)dihydro-1′H,3′H,5′H-spiro[piperidine-4,2′-pyrazolo[1,2-a]pyrazol]-1′-one]", "pEC50": 7.08},
      {"smiles": "COc1nccc(N2CCC3(CC2)CN2CC[C@@H](c4cc(F)cc(F)c4)N2C3=O)n1", "note": "[Example 1.84, (S)-7′-(3,5-difluorophenyl)-1-(2-methoxypyrimidin-4-yl)dihydro-1′H,3′H,5′H-spiro[piperidine-4,2′-pyrazolo[1,2-a]pyrazol]-1′-one]", "pEC50": 7.52},
      {"smiles": "O=C1N2[C@H](c3cc(F)cc(F)c3)CCN2CC12CCN(c1cnc(-c3ccccc3Cl)cn1)CC2", "note": "[Example 2.16, (S)-1-(5-(2-chlorophenyl)pyrazin-2-y1)-7′-(3,5-difluorophenyl)dihydro-1′H,3′H,5′H-spiro[piperidine-4,2′-pyrazolo[1,2-a]pyrazol]-1′-one]", "pEC50": 7.60},
      {"smiles": "COc1cc(N2CCC3(CC2)CN2CC[C@@H](c4cc(F)cc(F)c4)N2C3=O)ncn1", "note": "[Example 1.83, (S)-7′-(3,5-difluorophenyl)-1-(6-methoxypyrimidin-4-yl)dihydro-1′H,3′H,5′H-spiro[piperidine-4,2′-pyrazolo[1,2-a]pyrazol]-1′-one]", "pEC50": 7.55},
      {"smiles": "O=C1N2[C@H](c3cc(F)cc(F)c3)CCN2CC12CCN(c1cccc(-n3nccc3C(F)(F)F)n1)CC2", "note": "[Example 2.12, (S)-7′-(3,5-difluorophenyl)-1-(6-(5-(trifluoromethyl)-1H-pyrazol-1-y1)pyridin-2-yl)dihydro-l′H,3′H,5′H-spiro[piperidine-4,2′-pyrazolo[1,2-a]pyrazol]-1′-one]", "pEC50": 8.22},
      {"smiles": "O=C1N2[C@H](c3cc(F)cc(F)c3)CCN2CC12CCN(c1cnc(-c3cccc(Cl)c3)cn1)CC2", "note": "[Example 2.17, (S)-1-(5-(3-chlorophenyl)pyrazin-2-yl)-7′-(3,5-difluorophenyl)dihydro-1′H,3′H,5′H-spiro[piperidine-4,2′-pyrazolo[1,2-a]pyrazol]-1′-one]", "pEC50": 7.02},
      {"smiles": "Cc1c(Cl)ncnc1N1CCC2(CC1)CN1CC[C@@H](c3cc(F)cc(F)c3)N1C2=O", "note": "[Example 1.38, (S)-1-(6-chloro-5-methylpyrimidin-4-yl)-7′-(3,5-difluorophenyl)dihydro-1′H,3′H,5′H-spiro[piperidine-4,2′-pyrazolo[1,2-a]pyrazol]-1′-one]", "pEC50": 7.70},
      {"smiles": "O=C1N2[C@H](c3cc(F)cc(F)c3)CCN2CC12CCN(c1cc(F)ncc1F)CC2", "note": "[Example 1.9, (7′S)-7′-(3,5-difluorophenyl)-1-(2,5-difluoropyridin-4-yl)dihydro-1′H,3′H,5′H-spiro[piperidine-4,2′-pyrazolo[1,2-a]pyrazol]-1′-one]", "pEC50": 7.43},
      {"smiles": "Cc1nc(N2CCC3(CC2)CN2CC[C@@H](c4cc(F)cc(F)c4)N2C3=O)ncc1OC(F)F", "note": "[Example 1.26, (S)-1-(5-(difluoromethoxy)-4-methylpyrimidin-2-yl)-7′-(3,5-difluorophenyl)dihydro-1′H,3′H,5′H-spiro [piperidine-4,2′-pyrazolo[1,2-a]pyrazol]-1′-one]", "pEC50": 7.82},
      {"smiles": "O=C1N2[C@H](c3cc(F)cc(F)c3)CCN2CC12CCN(c1cnnc(Cl)c1)CC2", "note": "[Example 1.96, (S)-1-(6-chloropyridazin-4-yl)-7′-(3,5-difluorophenyl)dihydro-1′H,3′H,5′H-spiro[piperidine-4,2′-pyrazolo[1,2-a]pyrazol]-1′-one]", "pEC50": 6.24},
      {"smiles": "Cc1ccc(F)cc1C(=O)N1CCC2(CC1)CN1CC[C@@H](c3cc(F)cc(F)c3)N1C2=O", "note": "[Example 4.13, (S)-7′-(3,5-difluorophenyl)-1-(5-fluoro-2-methylbenzoyl) dihydro-1′H,3′H,5′H-spiro[piperidine-4,2′-pyrazolo[1,2-a]pyrazol]-l′-one]", "pEC50": 6.47},
      {"smiles": "O=C1N2[C@H](c3cc(F)cc(F)c3)CCN2CC12CCN(c1nccn3nccc13)CC2", "note": "[Example 2.11, (S)-7′-(3,5-difluorophenyl)-1-(pyrazolo[1,5-a]pyrazin-4-y1)dihydro-l′H,3′H,5′H-spiro[piperidine-4,2′-pyrazolo[1,2-a]pyrazol]-1′-one]", "pEC50": 7.47},
      {"smiles": "CCc1nccc(N2CCC3(CC2)CN2CC[C@@H](c4cc(F)cc(F)c4)N2C3=O)n1", "note": "[Example 1.72, (S)-7′-(3,5-difluorophenyl)-1-(2-ethylpyrimidin-4-yl)dihydro-1′H,3′H,5′H-spiro[piperidine-4,2′-pyrazolo[1,2-a]pyrazol]-1′-one]", "pEC50": 6.68},
      {"smiles": "O=C1N2[C@H](c3cc(F)cc(F)c3)CCN2CC12CCN(c1cccc(CO)n1)CC2", "note": "[Example 1.4, (7′S)-7′-(3,5-difluorophenyl)-1-[6-(hydroxymethyl)pyridin-2-yl]dihydro-1′H,3′H,5′H-spiro [piperidine-4,2′-pyrazolo[1,2-a]pyrazol]-1′-one]", "pEC50": 6.20},
      {"smiles": "Cc1cc(N2CCC3(CC2)CN2CC[C@@H](c4cc(F)cc(F)c4)N2C3=O)nc(Cl)n1", "note": "[Example 1.48, (S)-1-(2-chloro-6-methylpyrimidin-4-yl)-7′-(3,5-difluorophenyl)dihydro-1′H,3′H,5′H-spiro[piperidine-4,2′-pyrazolo[1,2-a]pyrazol]-1′-one]", "pEC50": 6.84},
      {"smiles": "O=C1N2[C@H](c3cc(F)cc(F)c3)CCN2CC12CCN(c1cc(-c3ccco3)ccn1)CC2", "note": "[Example 2.22, (S)-7′-(3,5-difluorophenyl)-1-(4-(furan-2-y1)pyridin-2-yl)dihydro-1′H,3′H,5′H-spiro[piperidine-4,2′-pyrazolo[1,2-a]pyrazol]-1′-one]", "pEC50": 6.88}
    ]}
  ]
}
